In publication PMC6934184, “Selective DNA-PKcs inhibition extends the therapeutic index of localized radiotherapy and chemotherapy” (The Journal of Clinical Investigation, 2019):

Target: T1, ADRBK2 (GRK3) (Homo sapiens, UniProt P35626)
T1 construct: purchased Thermo Fisher Scientific (Life Technologies) SelectScreen
Assay: SelectScreen Z'LYTE
Assay type: biochemical
Procedure, shortened: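 Compound tested in SelectScreen activity assays, Z'LYTE for CSF1R, CDK1/cyclin B and MAP2K6 and Adapta for CAMK1. ATP for CAMK1 was listed as 10, and Km app was used for CSF1R. Results are expressed in percent.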

T1 sequence (P35626 whole entry): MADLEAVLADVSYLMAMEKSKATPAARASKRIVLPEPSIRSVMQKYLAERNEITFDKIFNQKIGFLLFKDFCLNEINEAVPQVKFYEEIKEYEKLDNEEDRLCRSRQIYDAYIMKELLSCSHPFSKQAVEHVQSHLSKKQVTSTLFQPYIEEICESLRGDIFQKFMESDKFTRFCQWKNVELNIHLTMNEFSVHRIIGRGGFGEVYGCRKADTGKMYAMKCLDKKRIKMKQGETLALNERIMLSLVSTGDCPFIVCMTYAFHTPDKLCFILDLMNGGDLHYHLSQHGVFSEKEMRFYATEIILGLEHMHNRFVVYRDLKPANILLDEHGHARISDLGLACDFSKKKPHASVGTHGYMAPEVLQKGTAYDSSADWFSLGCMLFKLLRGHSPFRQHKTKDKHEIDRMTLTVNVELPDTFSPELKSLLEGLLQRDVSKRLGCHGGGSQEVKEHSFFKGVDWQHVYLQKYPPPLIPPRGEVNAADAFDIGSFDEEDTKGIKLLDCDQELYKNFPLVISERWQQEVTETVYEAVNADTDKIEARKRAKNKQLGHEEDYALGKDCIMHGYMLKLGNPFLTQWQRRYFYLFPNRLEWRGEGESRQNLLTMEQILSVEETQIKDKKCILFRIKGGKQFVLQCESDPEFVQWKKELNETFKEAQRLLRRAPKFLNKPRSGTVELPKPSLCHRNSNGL

CN(C(=O)CN1CCOCC1)c1ccc2sc3c(-c4cccc5c(=O)cc(N6CC7CCC(C6)O7)oc45)cccc3c2c1 [NU5455]
inhibition at 1 µM: 2.8%
